Values quoted from earlier work in US20100278900A1, “CHLORINE DIOXIDE BASED GUM AND CANDY” (BASF Corporation, priority 2009, published 2010).

Conditions: in the absence of traditional abrasives

[O][Cl+][O-] [chlorine dioxide]
polishing effect: polishing effect
